Legend:
CK1α = biological target: T1, CK1α (Homo sapiens, UniProt P48729+Q96SW2); test: HiBiT degradation assay, CK1α, Procedure A; assay type: cell-based
T1 construct: CSNK1A1-HiBit KI HEK293(LgBit) Cells; host or cells: HEK293(LgBit) knock-in cells
Outline: (§1)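 10-pt dose response, 10–0.005 μM, 0.1% DMSO; cells 1×10^6/ml in DMEM/10% FBS, 6 h, 37° C; HiBiT lytic detection, luminescence; DC50 + Ymin by 4-parameter fit.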

GSPT1 = GSPT1 (Homo sapiens, UniProt P15170+Q96SW2); test: HiBiT degradation assay, GSPT1, Procedure A; assay type: cell-based; parameters: HiBit-GSPT1 KI HEK293(LgBit) Cells; host or cells: HEK293(LgBit) knock-in cells
Outline: as §1

T1 sequence (P48729 whole entry): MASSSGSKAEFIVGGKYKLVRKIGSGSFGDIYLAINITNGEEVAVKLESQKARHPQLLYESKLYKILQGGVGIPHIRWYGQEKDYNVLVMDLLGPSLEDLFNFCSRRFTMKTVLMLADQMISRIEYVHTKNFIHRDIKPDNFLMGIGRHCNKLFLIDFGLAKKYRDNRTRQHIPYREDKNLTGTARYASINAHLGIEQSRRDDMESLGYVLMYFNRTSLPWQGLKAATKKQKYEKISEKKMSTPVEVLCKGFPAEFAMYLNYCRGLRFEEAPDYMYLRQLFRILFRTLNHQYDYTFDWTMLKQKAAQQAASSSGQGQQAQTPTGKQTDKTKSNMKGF
T1 sequence (Q96SW2 whole entry): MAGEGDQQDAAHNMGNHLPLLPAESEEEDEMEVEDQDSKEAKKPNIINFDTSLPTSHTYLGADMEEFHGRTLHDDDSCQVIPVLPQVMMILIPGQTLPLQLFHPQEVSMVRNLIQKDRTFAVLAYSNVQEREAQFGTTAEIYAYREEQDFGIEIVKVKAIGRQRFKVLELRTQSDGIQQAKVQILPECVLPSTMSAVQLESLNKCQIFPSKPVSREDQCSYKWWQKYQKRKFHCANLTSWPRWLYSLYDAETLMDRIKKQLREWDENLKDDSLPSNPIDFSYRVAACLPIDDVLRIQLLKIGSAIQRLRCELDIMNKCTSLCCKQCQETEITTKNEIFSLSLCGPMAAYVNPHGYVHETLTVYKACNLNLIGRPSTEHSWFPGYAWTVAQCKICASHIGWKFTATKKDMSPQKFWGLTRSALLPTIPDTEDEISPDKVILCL
T1 sequence (Q16531 whole entry partner): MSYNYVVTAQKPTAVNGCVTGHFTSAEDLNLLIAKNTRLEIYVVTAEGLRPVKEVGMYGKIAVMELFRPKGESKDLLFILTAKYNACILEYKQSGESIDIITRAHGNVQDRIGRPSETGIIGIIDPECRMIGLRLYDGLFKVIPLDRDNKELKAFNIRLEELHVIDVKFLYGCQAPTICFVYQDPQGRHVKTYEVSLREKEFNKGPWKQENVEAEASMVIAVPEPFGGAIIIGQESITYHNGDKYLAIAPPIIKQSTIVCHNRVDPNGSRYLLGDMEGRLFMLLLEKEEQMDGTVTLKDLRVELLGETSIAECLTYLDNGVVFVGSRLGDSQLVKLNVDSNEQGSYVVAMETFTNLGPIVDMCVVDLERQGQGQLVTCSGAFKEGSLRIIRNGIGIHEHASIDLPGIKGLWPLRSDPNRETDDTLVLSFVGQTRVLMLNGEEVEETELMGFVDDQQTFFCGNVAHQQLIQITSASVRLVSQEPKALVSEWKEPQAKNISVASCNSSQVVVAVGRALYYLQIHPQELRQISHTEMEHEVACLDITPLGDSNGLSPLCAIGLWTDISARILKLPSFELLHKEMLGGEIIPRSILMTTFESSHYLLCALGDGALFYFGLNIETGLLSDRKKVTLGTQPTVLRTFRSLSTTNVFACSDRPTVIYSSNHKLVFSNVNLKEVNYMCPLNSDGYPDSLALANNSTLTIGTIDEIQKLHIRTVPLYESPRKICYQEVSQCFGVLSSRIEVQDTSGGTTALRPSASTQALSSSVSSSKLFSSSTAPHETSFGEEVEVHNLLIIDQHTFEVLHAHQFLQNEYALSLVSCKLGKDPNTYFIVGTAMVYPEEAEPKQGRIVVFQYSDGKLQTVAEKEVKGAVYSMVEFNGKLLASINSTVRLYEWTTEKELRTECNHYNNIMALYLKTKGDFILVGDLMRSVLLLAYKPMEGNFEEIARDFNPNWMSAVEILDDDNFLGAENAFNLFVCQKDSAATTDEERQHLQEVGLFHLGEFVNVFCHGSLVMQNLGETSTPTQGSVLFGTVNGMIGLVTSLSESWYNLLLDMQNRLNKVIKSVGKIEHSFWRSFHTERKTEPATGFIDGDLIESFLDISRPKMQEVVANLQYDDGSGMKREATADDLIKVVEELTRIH
GSPT1, sequence (P15170 whole entry): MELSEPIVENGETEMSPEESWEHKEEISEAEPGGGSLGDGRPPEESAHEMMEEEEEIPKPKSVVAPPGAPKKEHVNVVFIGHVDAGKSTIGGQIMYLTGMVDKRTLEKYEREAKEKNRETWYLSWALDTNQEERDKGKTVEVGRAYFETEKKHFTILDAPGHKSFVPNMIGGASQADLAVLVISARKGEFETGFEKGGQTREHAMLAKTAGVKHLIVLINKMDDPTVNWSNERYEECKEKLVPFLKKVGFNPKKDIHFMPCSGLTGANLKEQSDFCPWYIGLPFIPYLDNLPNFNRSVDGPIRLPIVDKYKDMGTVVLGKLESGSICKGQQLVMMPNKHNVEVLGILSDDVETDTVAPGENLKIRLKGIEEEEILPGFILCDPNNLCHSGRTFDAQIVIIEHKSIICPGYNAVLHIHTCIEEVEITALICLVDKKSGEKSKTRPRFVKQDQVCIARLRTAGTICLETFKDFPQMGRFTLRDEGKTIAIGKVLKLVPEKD
GSPT1, sequence (Q96SW2 whole entry): as the sequence (Q96SW2 whole entry) above
GSPT1, sequence (Q16531 whole entry partner): as the sequence (Q16531 whole entry partner) above

| Structure (SMILES) | CK1α Ymin (CK1α; six hours incubation) | DC50 (CK1α; six hours incubation) [nM] | DC50 (GSPT1; six hours incubation) [nM] | GSPT1 Ymin (GSPT1; six hours incubation) | CK1α Ymin (CK1α; six hours) | DC50 (CK1α; six hours) [nM] | DC50 (GSPT1; six hours) [nM] | GSPT1 Ymin (GSPT1; six hours) |
| --- | --- | --- | --- | --- | --- | --- | --- | --- |
| COc1cccc(-c2c(-c3ccc4c(c3)CN(C3CCC(=O)NC3=O)C4=O)ncn2C)c1F (stereo not shown) [Example 190] | E (E = >25-75% remaining) | < 25 | < 25 | E (E = >25-75% remaining) | – | – | – | – |
| Cn1cnc(-c2ccc3c(c2)CN(C2CCC(=O)NC2=O)C3=O)c1C1=CCOC1 (stereo not shown) [Example 598] | – | – | – | – | D (D = >10- 25% remaining) | < 25 | ≥ 25 | E (E = >25-75% remaining) |
| Cn1cc(-c2ccc3c(c2)CN(C2CCC(=O)NC2=O)C3=O)nc1-c1ccc(OC2CC2)cc1 (stereo not shown) [Example 581] | – | – | – | – | C (C = 0-10% remaining) | < 25 | < 25 | F (F = >75-100% remaining) |
| Cn1cnc(-c2ccc3c(c2)CN(C2CCC(=O)NC2=O)C3=O)c1-c1cncc(OCc2ccccc2)c1 (stereo not shown) [Example 405] | – | – | – | – | F (F = >75-100% remaining) | < 25 | < 25 | F (F = >75-100% remaining) |
| Cn1cc(-c2ccc3c(c2)CN(C2CCC(=O)NC2=O)C3=O)nc1C1CCC(C)(C)CC1 (stereo not shown) [Example 539, 3-(5-(2-(4,4-dimethylcyclohexyl)-1-methyl-1H-imidazol-4-yl)-1-oxoisoindolin-2-yl)piperidine-2,6-dione] | – | – | – | – | E (E = >25-75% remaining) | < 25 | ≥ 25 | F (F = >75-100% remaining) |
| Cn1cc(-c2ccc3c(c2)CN(C2CCC(=O)NC2=O)C3=O)nc1-c1ccc(C(F)F)cc1 (stereo not shown) [Example 587] | – | – | – | – | C (C = 0-10% remaining) | < 25 | ≥ 25 | F (F = >75-100% remaining) |
| COCCCOc1ccc(-c2c(-c3ccc4c(c3)CN(C3CCC(=O)NC3=O)C4=O)cnn2C)cc1 (stereo not shown) [Example 411] | – | – | – | – | E (E = >25-75% remaining) | < 25 | ≥ 25 | F (F = >75-100% remaining) |
| Cn1nc(-c2ccccc2)cc1-c1ccc2c(c1)CN(C1CCC(=O)NC1=O)C2=O (stereo not shown) [Example 35, 3-(5-(1-Methyl-3-phenyl-1H-pyrazol-5-yl)-1-oxoisoindolin-2-yl)piperidine-2,6-dione] | F (F = >75-100% remaining) | ≥ 25 | ≥ 25 | F (F = >75-100% remaining) | – | – | – | – |
| Cc1ccc(-c2c(-c3ccc4c(c3)CN(C3CCC(=O)NC3=O)C4=O)ncn2C)s1 (stereo not shown) [Example 229] | C (C = 0-10% remaining) | < 25 | < 25 | E (E = >25-75% remaining) | – | – | – | – |
| Cn1cnc(-c2ccc3c(c2)CN(C2CCC(=O)NC2=O)C3=O)c1-c1ccc2c(ccn2C)c1 (stereo not shown) [Example 496] | – | – | – | – | C (C = 0-10% remaining) | < 25 | < 25 | E (E = >25-75% remaining) |
| Cn1cnc(-c2ccc3c(c2)CN(C2CCC(=O)NC2=O)C3=O)c1-c1ccc2ccccc2c1 (stereo not shown) [Example 256] | C (C = 0-10% remaining) | < 25 | < 25 | E (E = >25-75% remaining) | – | – | – | – |
| Cn1ncc(-c2ccc3c(c2)CN(C2CCC(=O)NC2=O)C3=O)c1-c1cncc(OCc2ccccc2)c1 (stereo not shown) [Example 467] | – | – | – | – | F (F = >75-100% remaining) | ≥ 25 | ≥ 25 | – |
| COCc1ccc(-c2c(-c3ccc4c(c3)CN(C3CCC(=O)NC3=O)C4=O)ncn2C)cc1 (stereo not shown) [Example 250] | C (C = 0-10% remaining) | < 25 | < 25 | E (E = >25-75% remaining) | – | – | – | – |

The next lines start with the values.

| CK1α Ymin (CK1α; six hours incubation) | DC50 (CK1α; six hours incubation) [nM] | DC50 (GSPT1; six hours incubation) [nM] | GSPT1 Ymin (GSPT1; six hours incubation) | CK1α Ymin (CK1α; six hours) | DC50 (CK1α; six hours) [nM] | DC50 (GSPT1; six hours) [nM] | GSPT1 Ymin (GSPT1; six hours) | Structure (SMILES) |
| --- | --- | --- | --- | --- | --- | --- | --- | --- |
| D (D = >10- 25% remaining) | < 25 | ≥ 25 | F (F = >75-100% remaining) | – | – | – | – | Cc1ccccc1-c1c(-c2ccc3c(c2)CN(C2CCC(=O)NC2=O)C3=O)ncn1C (stereo not shown) [Example 161] |
| – | – | – | – | D (D = >10- 25% remaining) | < 25 | ≥ 25 | F (F = >75-100% remaining) | Cn1nc(-c2ccc3c(c2)CN(C2CCC(=O)NC2=O)C3=O)nc1N1CCCCC1 (stereo not shown) [Example 554, 3-(5-(1-methyl-5-(piperidin-1-yl)-1H-1,2,4-triazol-3-yl)-1-oxoisoindolin-2-yl) piperidine-2,6-dione] |
| D (D = >10- 25% remaining) | < 25 | ≥ 25 | F (F = >75-100% remaining) | – | – | – | – | Cn1ncc(-c2ccc3c(c2)CN(C2CCC(=O)NC2=O)C3=O)c1-c1ccc(O)cc1 (stereo not shown) [Example 142] |
| – | – | – | – | C (C = 0-10% remaining) | < 25 | ≥ 25 | F (F = >75-100% remaining) | Cn1c(C(F)F)nc(-c2ccc3c(c2)CN(C2CCC(=O)NC2=O)C3=O)c1-c1cncnc1 (stereo not shown) [Example 540, 3-(5-(2-(difluoromethyl)-1-methyl-5-(pyrimidin-5-yl)-1H-imidazol-4-yl)-1-oxoisoindolin-2-yl)piperidine-2,6-dione] |
| – | – | – | – | D (D = >10- 25% remaining) | ≥ 25 | ≥ 25 | F (F = >75-100% remaining) | Cn1ncc(-c2ccc3c(c2)CN(C2CCC(=O)NC2=O)C3=O)c1-c1cc[nH]n1 (stereo not shown) [Example 469] |
| E (E = >25-75% remaining) | ≥ 25 | ≥ 25 | C (C = 0-10% remaining) | – | – | – | – | Cn1ncc(-c2ccc3c(c2)CN(C2CCC(=O)NC2=O)C3=O)c1-c1ccc(S(=O)(=O)NC2CCCCC2)cc1 (stereo not shown) [Example 160] |
| – | – | – | – | D (D = >10- 25% remaining) | < 25 | ≥ 25 | F (F = >75-100% remaining) | Cn1cc(-c2ccc3c(c2)CN(C2CCC(=O)NC2=O)C3=O)nc1C1CCC(F)(F)CC1 (stereo not shown) [Example 545, 3-(5-(2-(4,4-difluorocyclohexyl)-1-methyl-1H-imidazol-4-yl)-1-oxoisoindolin-2-yl)piperidine-2,6-dione] |
| – | – | – | – | E (E = >25-75% remaining) | ≥ 25 | ≥ 25 | F (F = >75-100% remaining) | Cn1ncc(-c2ccc3c(c2)CN(C2CCC(=O)NC2=O)C3=O)c1C1CCOC1 (stereo not shown) [Example 592] |
| – | – | – | – | C (C = 0-10% remaining) | < 25 | < 25 | E (E = >25-75% remaining) | CCCCc1ccc(-c2nc(-c3ccc4c(c3)CN(C3CCC(=O)NC3=O)C4=O)cn2C)cc1 (stereo not shown) [Example 577] |
| – | – | – | – | E (E = >25-75% remaining) | ≥ 25 | ≥ 25 | F (F = >75-100% remaining) | Cn1cnc(-c2ccc3c(c2)CN(C2CCC(=O)NC2=O)C3=O)c1-c1ccc(N2CCOCC2)nc1 (stereo not shown) [Example 404] |
| C (C = 0-10% remaining) | < 25 | < 25 | E (E = >25-75% remaining) | – | – | – | – | Cn1cnc(-c2ccc3c(c2)CN(C2CCC(=O)NC2=O)C3=O)c1-c1ccccc1F (stereo not shown) [Example 164] |
| E (E = >25-75% remaining) | < 25 | ≥ 25 | F (F = >75-100% remaining) | – | – | – | – | Cn1cnc(-c2ccc3c(c2)CN(C2CCC(=O)NC2=O)C3=O)c1-c1ccc(-c2ccc(O)cc2)cc1 (stereo not shown) [Example 298] |
| – | – | – | – | E (E = >25-75% remaining) | ≥ 25 | ≥ 25 | F (F = >75-100% remaining) | COc1cncc(-c2c(-c3ccc4c(c3)CN(C3CCC(=O)NC3=O)C4=O)cnn2C)c1 (stereo not shown) [Example 456] |
